Test results: ChEMBL document CHEMBL6103669, “Is a Fungal Apocalypse Inevitable or Just a Hallucination? An Overview of the Antifungal Armamentarium Used in the Fight against Pathogenic Fungi” (ACS Med Chem Lett, 2025)
Converted amounts (≈) assume the structure as drawn. Each block holds one compound with its values, some of them ahead of it.

Legend:
Candida albicans [1] = test: Antifungal activity against fluconazole-resistant Candida albicans 901 assessed as inhibition of fungal growth; assay type: functional
Cryptococcus neoformans [2] = test: Antifungal activity against Cryptococcus neoformans H99 assessed as fungal growth inhibition measured after 48 hrs by resazurin assay; assay type: functional
Candida tropicalis [3] = test: Antifungal activity against Candida tropicalis 3890 assessed as reduction in fungal growth; assay type: functional
Cryptococcus neoformans [4] = test: Antifungal activity against Cryptococcus neoformans H99; assay type: functional
Candida tropicalis [5] = test: Antifungal activity against Candida tropicalis 5008 assessed as reduction in fungal growth; assay type: functional
Candida albicans [6] = test: Antifungal activity against fluconazole-resistant Candida albicans 904 assessed as reduction in fungal growth by NCCLS method; assay type: functional
[7] = target: T1, Sterol 24-C-methyltransferase (Candida albicans (strain SC5314 / ATCC MYA-2876) (Yeast), UniProt O74198); test: Inhibition of N-terminal His-tagged Candida albicans SC5314 Erg6 extracted from Escherichia coli BL21 (DE3) methyltransferase activity using zymosterol as substrate pre-incubated for 15 mins followed by substrate addition by liquid scintillation counter analysis
T1 sequence (O74198 whole entry): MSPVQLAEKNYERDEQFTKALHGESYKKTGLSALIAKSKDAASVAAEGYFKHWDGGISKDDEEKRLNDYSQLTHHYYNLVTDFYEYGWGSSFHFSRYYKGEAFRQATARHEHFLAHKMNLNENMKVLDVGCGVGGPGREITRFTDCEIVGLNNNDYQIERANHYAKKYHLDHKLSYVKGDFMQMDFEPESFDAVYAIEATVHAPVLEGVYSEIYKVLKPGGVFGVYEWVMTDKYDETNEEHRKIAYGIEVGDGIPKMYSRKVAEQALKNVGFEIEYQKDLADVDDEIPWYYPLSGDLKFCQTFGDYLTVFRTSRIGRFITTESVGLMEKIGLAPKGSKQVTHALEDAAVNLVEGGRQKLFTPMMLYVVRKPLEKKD

[8] = target: T1, Sterol 24-C-methyltransferase; test: Inhibition of Candida albicans SC5314 Erg6

SMILES: Clc1ccc(N/N=C(\c2ccccc2)c2ccccn2)nc1
MIC50 (Candida albicans [1]): 0.5 µg/mL (≈ 1.62 µM) | MIC50 (Cryptococcus neoformans [2]): 0.5 µg/mL (≈ 1.62 µM)

SMILES: O=C(CCCCCCCOc1ccc(CN2CCN(CC(O)(Cn3cncn3)c3ccc(F)cc3F)CC2)cc1)NO (centres undefined)
MIC80 (Candida tropicalis [3]): 0.5 µg/mL (≈ 0.852 µM) | MIC80 (Cryptococcus neoformans [4]): 0.5 µg/mL (≈ 0.852 µM) | MIC80 (Candida tropicalis [5]): 0.5 µg/mL (≈ 0.852 µM)

SMILES: COc1cc2c(cc1-c1c(C)noc1C)[nH]c1ncnc(NCCCCCCC(=O)NO)c12
MIC80 (Candida albicans [6]): 0.5 µg/mL (≈ 1.1 µM) | MIC80 (Cryptococcus neoformans [4]): 8 µg/mL (≈ 17.7 µM)

IC50 [7]: 0.58 µM
SMILES: Cc1c(-n2c(-c3ccc(Br)cc3)cs/c2=N\c2ccccc2)c(=O)n(-c2ccccc2)n1C

IC50 [8]: 11.6 µM
SMILES: C=C(CC[C@@H](CO)[C@H]1CC[C@@]2(C)C3=C(CC[C@]12C)[C@@]1(C)CC[C@@H](OC(=O)C[C@@](C)(O)CC(=O)O)C(C)(C)[C@@H]1CC3)[C@H](C)C(=O)O
